Experimental data reported in US20220409598A1, “METHOD OF CONTROLLING BLOOD SUGAR LEVEL AND TREATMENT OF DIABETES AND RELATED CONDITIONS” (ILDONG PHARMACEUTICAL CO., LTD., priority 2021, published 2022).
Read-outs that look alike come from different tables or passages of the source. Blank lines part the entries; values can stand above or below the compound they belong to.

Assays:
[1] = diabetics, metformin on its own; cited from earlier work
[2] = Single ascending dose (SAD) study in healthy human, plasma PK; format: in vivo; conditions: for AUC(0-inf) / AUC(0-t) / Cmax: human, plasma, po; for AUC(0-inf): read-out: AUCinf, geometric mean; for AUC(0-t): read-out: AUClast, geometric mean; for Cmax: read-out: Cmax, geometric mean
Method: (§1) To determine safety and pK data in human subjects, single ascending dose (SAD) study was conducted. SAD study included 5 cohorts of 8 healthy subjects who were randomized and received a single oral dose of Reference Example 1 compound or placebo (3:1) at 0.5 mg, 1 mg, 2 mg, 5 mg, or 10 mg. Each cohort was initiated after review of the safety and PK data of the previous cohort. 5 mg cohort was divided into two groups, wherein one group was administered with Reference Example 1 compound in fasted state and the other group was administered with Reference Example 1 compound together with food.
Mean plasma concentration of Reference Example 1 compound following single dose of 0.5, 1, 2, 5, and 10 mg are shown in FIG. 4A (linear scale) and FIG. 4B (semi-logarithmic scale).
FIG. 5A and FIG. 5B show mean plasma concentration of Reference Example 1 compound following single dose of 0.5 mg (fasted), 1 mg (fasted), 2 mg (fasted), 5 mg (fasted), and 5 mg (fed) in linear scale and semi-logarithmic scale, respectively.

[3] = Single ascending dose (SAD) study in healthy human, safety; format: in vivo
Method: as §1
As expected from preclinical PK modelling, none of the single doses exceeded the PK stopping criteria for Cmax and AUClast.
Of the 12 AEs, 5 were considered to be possibly related to IMP (Investigational Medicinal Product). The 5 AE included headaches (2), lower abdominal pain, diarrhea, and exanthema in the right upper arm, all of which were of mild intensity and recovered quickly.
Overall, none of the AEs caused medical concern, and no stopping criteria per protocol were met.

[4] = OGTT (Oral Glucose Tolerance Test) in SD rats; format: in vivo; conditions: 1 mg/kg
Method: Additionally, the results of the exposure and efficacy of Reference Example 1 compound (at 0.1 mg/kg, 0.3 mg/kg, and 1 mg/kg doses) in SD rats are shown in FIG. 6.

[5] = target: BSEP (bile salt export pump) (Homo sapiens, UniProt O95342); assay: Human transporter inhibition study, BSEP; format: biochemical
Chain of BSEP (bile salt export pump) (O95342 whole entry): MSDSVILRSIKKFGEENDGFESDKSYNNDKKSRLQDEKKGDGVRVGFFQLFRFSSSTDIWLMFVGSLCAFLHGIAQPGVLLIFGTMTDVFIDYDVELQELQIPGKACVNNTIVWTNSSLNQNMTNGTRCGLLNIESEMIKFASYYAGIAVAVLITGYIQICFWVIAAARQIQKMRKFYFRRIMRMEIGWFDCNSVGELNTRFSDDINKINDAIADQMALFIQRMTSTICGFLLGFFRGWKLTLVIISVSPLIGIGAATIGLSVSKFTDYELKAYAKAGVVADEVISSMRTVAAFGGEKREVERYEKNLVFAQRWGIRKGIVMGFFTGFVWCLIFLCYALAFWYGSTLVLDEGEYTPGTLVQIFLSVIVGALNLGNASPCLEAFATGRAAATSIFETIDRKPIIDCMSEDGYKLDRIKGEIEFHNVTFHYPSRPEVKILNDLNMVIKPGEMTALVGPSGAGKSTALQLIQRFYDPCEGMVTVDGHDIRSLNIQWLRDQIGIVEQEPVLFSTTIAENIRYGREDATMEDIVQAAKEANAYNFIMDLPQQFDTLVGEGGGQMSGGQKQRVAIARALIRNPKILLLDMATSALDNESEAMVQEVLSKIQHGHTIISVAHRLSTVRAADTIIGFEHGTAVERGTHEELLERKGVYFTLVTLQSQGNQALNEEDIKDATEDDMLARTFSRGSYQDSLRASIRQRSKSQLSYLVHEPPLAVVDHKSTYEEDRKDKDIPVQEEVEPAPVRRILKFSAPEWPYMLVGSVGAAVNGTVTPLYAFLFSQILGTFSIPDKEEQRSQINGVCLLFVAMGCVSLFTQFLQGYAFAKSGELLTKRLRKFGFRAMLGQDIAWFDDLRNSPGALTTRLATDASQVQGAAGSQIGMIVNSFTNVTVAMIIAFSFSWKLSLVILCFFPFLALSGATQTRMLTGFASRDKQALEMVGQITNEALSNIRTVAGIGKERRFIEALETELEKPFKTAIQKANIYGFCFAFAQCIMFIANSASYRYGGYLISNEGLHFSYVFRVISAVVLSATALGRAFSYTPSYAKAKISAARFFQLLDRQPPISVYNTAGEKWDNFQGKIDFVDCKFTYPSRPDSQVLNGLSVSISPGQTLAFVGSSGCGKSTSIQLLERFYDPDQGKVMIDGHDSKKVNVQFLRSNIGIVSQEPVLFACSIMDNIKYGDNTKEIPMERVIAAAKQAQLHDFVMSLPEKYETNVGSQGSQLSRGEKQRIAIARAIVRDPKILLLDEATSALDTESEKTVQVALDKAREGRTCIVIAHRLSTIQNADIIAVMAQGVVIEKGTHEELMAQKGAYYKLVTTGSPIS
From the text: DILI risk may be due to potency of BSEP inhibition in combination with in vivo drug exposure (e.g., Cmax or Css (plasma concentration at steady state)).
(§2) • (a) Human Transporter Inhibition Study and Safety Margin

[6] = target: MRP2 (Homo sapiens, UniProt Q92887); assay: Human transporter inhibition study, MRP2; format: biochemical; conditions: read-out: MRP2 in vitro inhibition IC50
Chain of MRP2 (Q92887 whole entry): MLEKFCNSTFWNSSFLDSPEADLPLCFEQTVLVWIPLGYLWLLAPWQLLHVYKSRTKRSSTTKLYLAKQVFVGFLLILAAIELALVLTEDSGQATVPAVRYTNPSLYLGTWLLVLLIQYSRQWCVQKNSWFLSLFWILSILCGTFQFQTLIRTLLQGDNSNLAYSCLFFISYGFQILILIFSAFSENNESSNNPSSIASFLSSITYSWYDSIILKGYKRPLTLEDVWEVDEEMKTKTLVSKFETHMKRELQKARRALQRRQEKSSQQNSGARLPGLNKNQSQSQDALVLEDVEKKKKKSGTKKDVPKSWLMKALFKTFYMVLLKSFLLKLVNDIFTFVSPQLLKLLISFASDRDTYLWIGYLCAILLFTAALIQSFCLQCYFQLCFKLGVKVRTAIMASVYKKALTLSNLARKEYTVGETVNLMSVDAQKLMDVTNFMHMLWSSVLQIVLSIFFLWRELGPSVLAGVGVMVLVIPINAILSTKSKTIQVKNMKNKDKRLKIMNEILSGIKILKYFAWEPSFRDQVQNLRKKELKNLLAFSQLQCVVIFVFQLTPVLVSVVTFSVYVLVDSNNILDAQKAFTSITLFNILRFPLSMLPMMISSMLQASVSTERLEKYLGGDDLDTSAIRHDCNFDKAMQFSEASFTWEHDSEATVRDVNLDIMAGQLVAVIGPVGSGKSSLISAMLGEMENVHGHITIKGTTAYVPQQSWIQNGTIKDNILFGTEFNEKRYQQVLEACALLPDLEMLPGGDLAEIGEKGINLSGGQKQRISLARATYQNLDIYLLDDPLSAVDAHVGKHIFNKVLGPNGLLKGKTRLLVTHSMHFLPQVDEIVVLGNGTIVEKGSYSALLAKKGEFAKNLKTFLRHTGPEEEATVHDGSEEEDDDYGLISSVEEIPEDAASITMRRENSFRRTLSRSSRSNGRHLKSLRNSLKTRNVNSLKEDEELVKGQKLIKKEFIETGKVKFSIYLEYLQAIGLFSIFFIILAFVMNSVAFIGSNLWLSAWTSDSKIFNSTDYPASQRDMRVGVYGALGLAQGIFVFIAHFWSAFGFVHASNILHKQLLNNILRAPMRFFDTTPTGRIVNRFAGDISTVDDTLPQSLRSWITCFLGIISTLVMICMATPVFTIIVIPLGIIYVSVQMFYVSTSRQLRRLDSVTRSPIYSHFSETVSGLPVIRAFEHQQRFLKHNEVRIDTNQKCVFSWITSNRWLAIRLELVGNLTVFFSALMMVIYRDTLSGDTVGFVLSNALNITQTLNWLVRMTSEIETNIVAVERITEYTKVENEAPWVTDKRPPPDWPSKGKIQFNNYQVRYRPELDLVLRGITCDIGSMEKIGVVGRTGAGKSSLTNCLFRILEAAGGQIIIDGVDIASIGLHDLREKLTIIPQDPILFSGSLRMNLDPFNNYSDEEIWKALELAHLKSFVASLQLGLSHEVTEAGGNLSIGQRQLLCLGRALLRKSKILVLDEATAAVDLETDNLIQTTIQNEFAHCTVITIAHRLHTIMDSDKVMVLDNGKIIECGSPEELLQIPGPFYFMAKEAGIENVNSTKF
From the text: as §2

[7] = target: MRP3 (Homo sapiens, UniProt O15438); assay: Human transporter inhibition study, MRP3; format: biochemical
Chain of MRP3 (O15438 whole entry): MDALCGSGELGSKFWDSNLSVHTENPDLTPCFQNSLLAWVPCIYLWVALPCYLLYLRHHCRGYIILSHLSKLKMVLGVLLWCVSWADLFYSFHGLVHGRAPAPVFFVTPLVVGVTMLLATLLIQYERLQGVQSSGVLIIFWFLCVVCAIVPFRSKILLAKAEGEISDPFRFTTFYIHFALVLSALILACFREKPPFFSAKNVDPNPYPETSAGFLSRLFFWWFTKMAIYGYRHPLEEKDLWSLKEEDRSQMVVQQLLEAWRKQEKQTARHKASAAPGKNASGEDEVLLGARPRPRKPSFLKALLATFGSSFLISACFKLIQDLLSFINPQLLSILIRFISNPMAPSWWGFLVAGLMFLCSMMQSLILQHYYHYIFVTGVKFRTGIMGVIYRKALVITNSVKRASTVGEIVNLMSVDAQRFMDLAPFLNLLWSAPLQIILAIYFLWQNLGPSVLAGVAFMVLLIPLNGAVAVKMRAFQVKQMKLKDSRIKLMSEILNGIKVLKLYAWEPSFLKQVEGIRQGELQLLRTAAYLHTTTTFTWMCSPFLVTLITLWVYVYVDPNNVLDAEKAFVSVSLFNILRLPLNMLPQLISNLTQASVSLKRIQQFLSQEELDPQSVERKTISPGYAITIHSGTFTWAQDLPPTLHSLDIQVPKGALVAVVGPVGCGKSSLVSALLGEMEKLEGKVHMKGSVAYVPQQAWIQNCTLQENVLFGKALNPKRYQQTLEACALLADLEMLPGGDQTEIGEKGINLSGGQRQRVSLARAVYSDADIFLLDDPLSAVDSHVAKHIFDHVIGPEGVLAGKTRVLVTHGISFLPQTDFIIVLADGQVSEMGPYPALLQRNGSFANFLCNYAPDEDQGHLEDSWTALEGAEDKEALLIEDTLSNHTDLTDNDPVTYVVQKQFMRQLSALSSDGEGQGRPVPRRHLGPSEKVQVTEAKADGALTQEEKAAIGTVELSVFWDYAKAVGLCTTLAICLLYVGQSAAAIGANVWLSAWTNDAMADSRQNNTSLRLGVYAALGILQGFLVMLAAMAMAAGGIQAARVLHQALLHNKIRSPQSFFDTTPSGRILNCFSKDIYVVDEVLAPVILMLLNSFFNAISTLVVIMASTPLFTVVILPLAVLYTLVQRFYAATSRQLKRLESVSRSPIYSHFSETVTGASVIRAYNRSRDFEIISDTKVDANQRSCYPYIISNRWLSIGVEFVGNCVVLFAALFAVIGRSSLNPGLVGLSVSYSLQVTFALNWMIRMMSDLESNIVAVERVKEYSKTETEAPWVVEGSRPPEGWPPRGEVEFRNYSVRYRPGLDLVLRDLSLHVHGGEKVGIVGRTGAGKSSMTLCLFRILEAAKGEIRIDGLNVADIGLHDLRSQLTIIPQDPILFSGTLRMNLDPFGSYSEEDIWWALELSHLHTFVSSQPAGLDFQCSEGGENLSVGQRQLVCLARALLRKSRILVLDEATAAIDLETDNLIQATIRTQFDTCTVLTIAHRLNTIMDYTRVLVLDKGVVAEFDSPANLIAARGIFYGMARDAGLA
From the text: as §2

[8] = target: T1, MRP4 (Homo sapiens, UniProt O15439); assay: Human transporter inhibition study, MRP4; format: biochemical; conditions: read-out: MRP4 in vitro inhibition IC50
T1 sequence (O15439 1-1325): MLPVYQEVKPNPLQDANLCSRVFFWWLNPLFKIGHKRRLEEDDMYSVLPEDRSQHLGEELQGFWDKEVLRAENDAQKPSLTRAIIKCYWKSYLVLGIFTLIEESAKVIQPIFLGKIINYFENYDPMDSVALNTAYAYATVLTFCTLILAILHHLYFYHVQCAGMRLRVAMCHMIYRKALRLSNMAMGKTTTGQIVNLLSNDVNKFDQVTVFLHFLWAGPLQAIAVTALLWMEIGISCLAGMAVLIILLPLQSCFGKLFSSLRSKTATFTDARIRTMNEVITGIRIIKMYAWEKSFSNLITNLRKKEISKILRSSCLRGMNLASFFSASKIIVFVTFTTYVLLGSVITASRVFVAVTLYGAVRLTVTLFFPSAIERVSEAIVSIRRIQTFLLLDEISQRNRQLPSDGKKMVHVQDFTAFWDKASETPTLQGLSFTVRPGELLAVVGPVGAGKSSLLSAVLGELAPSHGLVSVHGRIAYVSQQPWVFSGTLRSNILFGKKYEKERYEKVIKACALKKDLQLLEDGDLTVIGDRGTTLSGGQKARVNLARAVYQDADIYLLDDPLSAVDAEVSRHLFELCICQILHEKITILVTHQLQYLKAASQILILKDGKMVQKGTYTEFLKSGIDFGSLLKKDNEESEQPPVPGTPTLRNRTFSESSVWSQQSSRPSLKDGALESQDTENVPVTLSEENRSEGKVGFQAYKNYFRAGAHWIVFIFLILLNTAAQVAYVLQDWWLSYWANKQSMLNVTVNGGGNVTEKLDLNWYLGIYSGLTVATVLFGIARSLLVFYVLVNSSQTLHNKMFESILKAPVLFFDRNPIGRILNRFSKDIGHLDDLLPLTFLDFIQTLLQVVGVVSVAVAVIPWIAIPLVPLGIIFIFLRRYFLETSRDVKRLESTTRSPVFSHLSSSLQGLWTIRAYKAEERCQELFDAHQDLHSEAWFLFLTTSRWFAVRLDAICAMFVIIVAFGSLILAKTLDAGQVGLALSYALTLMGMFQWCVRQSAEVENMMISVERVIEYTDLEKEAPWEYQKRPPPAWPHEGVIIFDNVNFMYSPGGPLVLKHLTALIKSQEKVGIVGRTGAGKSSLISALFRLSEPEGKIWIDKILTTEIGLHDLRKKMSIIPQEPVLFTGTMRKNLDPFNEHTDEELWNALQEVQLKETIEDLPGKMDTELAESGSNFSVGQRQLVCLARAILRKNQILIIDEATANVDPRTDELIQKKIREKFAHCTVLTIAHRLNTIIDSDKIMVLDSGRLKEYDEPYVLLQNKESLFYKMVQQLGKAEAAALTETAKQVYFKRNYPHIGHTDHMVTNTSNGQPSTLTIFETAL
From the text: as §2

[9] = tested on: glycocholic acid (GCA) accumulation; assay: Bile acid analysis, glycocholic acid (GCA) accumulation; format: cell-based
From the text: Glycocholic acid (GCA) and glycochenodeoxycholic acid (GCDCA) are major components of human bile acids and their significant increase has been confirmed in DILI patients.

[10] = tested on: HepaRG cell; assay: Mitochondrial function inhibition in HepaRG cell; format: cell-based
[11] = tested on: human hepatocytes; assay: Covalent protein binding in human hepatocytes; format: in vitro ADME
Method: The covalent binding (CVB) burden was estimated by determining the CVB of radiolabeled compound to human hepatocytes and factoring in both the daily dose and the fraction of metabolism leading to CVB. […] Reference Example 1 compound's dose over 260 mg a day was predicted to exceed the CVB burden threshold of 1 mg/day.

[12] = HμRELTox assay, hepatotoxic response; format: cell-based; conditions: read-out: TC50 (the source's name)
[13] = tested on: FXR; assay: Transcription factor profiling in 2D HepG2 cell, FXR; format: cell-based; conditions: 10 μM for 48 hours
[14] = tested on: hepatic transcription factors; assay: Transcription factor profiling in 2D HepG2 cell, various hepatic transcription factors; format: cell-based; conditions: 2D HepG2 cell, 0.3, 3.3, 10 μM; compared to fasiglifam
[15] = tested on: PPAR; assay: Transcription factor profiling in 2D HepG2 cell, PPAR; format: cell-based; conditions: 10 μM for 24 hours
[16] = tested on: AP-1; assay: Transcription factor profiling in 2D HepG2 cell, AP-1; format: cell-based; conditions: 10 μM for 24 hours
[17] = tested on: NRF2; assay: Transcription factor profiling in 2D HepG2 cell, NRF2; format: cell-based; conditions: 10 μM for 24 hours
[18] = cited from earlier work; for Cmax: fasiglifam, Clin. Pharmacol. Ther. 92, 29-39, read-out: Human Cmax (maximum plasma concentration at steady state); for Cpss, max: human
[19] = tested on: human hepatocytes; conditions: Otieno et al. 2018, cited from earlier work
[20] = 0.5 mg, single oral dose 0.5 mg
[21] = 5 mg, single oral dose 5 mg fasted
[22] = 5 mg, single oral dose 5 mg fed
[23] = in vitro inhibition, read-out: BSEP IC50
[24] = human hepatocytes, compound alone

SMILES: CN(C)C(=N)N=C(N)N [metformin]
Average improvement in the HbA1c value [1]: 1.0-1.5%

SMILES: CC#C[C@@H](CC(=O)O)c1ccc(O[C@@H]2CCc3c(-c4ccc(O[C@@H]5CCOC5)nc4)ccc(F)c32)cc1 [Reference Example 1, (S)-3-(4-(((R)-7-Fluoro-4-(6-(((R)-tetrahydrofuran-3-yl)oxy)pyridin-3-yl)-2,3-dihydro-1H-inden-1-yl)oxy)phenyl)hex-4-ynoic acid]
AUC(0-inf) [2, 20]: 811 ng·h/mL
AUC(0-t) [2, 20]: 680 ng·h/mL
Cmax [2, 20]: 28.4 ng/mL
AUC(0-inf) ([2]; 1 mg, single oral dose 1 mg): 1660 ng·h/mL
AUC(0-t) ([2]; 1 mg, single oral dose 1 mg): 1370 ng·h/mL
Cmax ([2]; 1 mg, single oral dose 1 mg): 55.8 ng/mL
AUC(0-inf) ([2]; 2 mg, single oral dose 2 mg): 2980 ng·h/mL
AUC(0-t) ([2]; 2 mg, single oral dose 2 mg): 2480 ng·h/mL
Cmax ([2]; 2 mg, single oral dose 2 mg): 109 ng/mL
AUC(0-inf) [2, 21]: 7740 ng·h/mL
AUC(0-t) [2, 21]: 6520 ng·h/mL
Cmax [2, 21]: 243 ng/mL
AUC(0-inf) [2, 22]: 8270 ng·h/mL
AUC(0-t) [2, 22]: 6930 ng·h/mL
Cmax [2, 22]: 250 ng/mL
AUC(0-inf) ([2]; 10 mg, single oral dose 10 mg): 18600 ng·h/mL
AUC(0-t) ([2]; 10 mg, single oral dose 10 mg): 14800 ng·h/mL
Cmax ([2]; 10 mg, single oral dose 10 mg): 545 ng/mL
Fed/fasted % ratio for AUClast ([2]; single dose 5 mg): 106.28%
Fed/fasted % ratio for Cmax ([2]; single dose 5 mg): 103.19%
Changes in ECG, vital signs, and lab data ([3]; SAD study): no significant changes
Adverse events of special interest / serious adverse events ([3]; SAD study 0.5-10 mg): no adverse event of special interest (AESI) or serious adverse event (SAE) was reported
Number of AEs considered possibly related to IMP ([3]; SAD study, all mild intensity): 5
Number of adverse events (AE) reported ([3]; SAD study, compound or placebo): 12
Tolerability of single doses ([3]; single oral doses 0.5 mg to 10 mg): safe and well tolerated
Reduction in glucose AUC in OGTT [4]: approximately 20.8%
IC50 [5, 23]: 14.3 µM
IC50 ([5]; read-out: BSEP (bile salt export pump) IC50): 14.3 µM
IC50 [6]: 39.9 µM
MRP3 in vitro inhibition IC50 [7]: No inhibition
IC50 [8]: 4.4 µM
Accumulation of glycocholic acid (GCA) ([9]; at 1 μM): does not show significant accumulation
Inhibitory effect on mitochondrial function (DILI risk) [10]: lower DILI risk than fasiglifam
Dose predicted to exceed the CVB burden threshold of 1 mg/day [11]: over 260 mg a day
CVB Burden ([11]; daily dose 2 mg (human efficacious dose from PK/PD modeling)): 0.01 mg/day
Covalent binding (CVB), +Aminobenzotriazole (CYP inhibitor) ([11]; human hepatocytes): 29.5 pmol/mg protein
Covalent binding (CVB), +Borneol (UGT inhibitor) ([11]; human hepatocytes): 21.2 pmol/mg protein
Covalent binding (CVB), compound [11, 24]: 37.6 pmol/mg protein
CC50 [12]: 52.7 µM
Increase of FXR activity [13]: 1.58 fold
Effect on various transcription factor (TF) activities [14]: insignificant

IC50 [6]: 24.8 µM
IC50 ([7]; read-out: MRP3 in vitro inhibition IC50): 14.2 µM
IC50 [8]: 11.1 µM
Accumulation of glycocholic acid (GCA) ([9]; at 4 μM): significant accumulation
SMILES: Cc1cc(OCCCS(C)(=O)=O)cc(C)c1-c1cccc(COc2ccc3c(c2)OC[C@H]3CC(=O)O)c1 [fasiglifam]
IC50 [5, 23]: 19.6 µM
CC50 [12]: 88.4 µM
Activity of PPAR [15]: significantly increased
Activity of AP-1 [16]: significantly increased
Activity of NRF2 [17]: significantly increased
Cmax ([18]; listed as Fasiglifam): 10 µM
Cmax [18]: 10.1 µM
Cpss, max ([18]; dose 25 mg): 4.38 µM
Cpss, max ([18]; dose 50 mg): 10.10 µM
CVB Burden ([19]; daily dose 50 mg): 2 mg/day
Covalent binding (CVB), compound [19, 24]: 69.1 pmol/mg protein
Covalent binding (CVB), +Aminobenzotriazole (CYP inhibitor) ([19]; human hepatocytes): 73.7 pmol/mg protein
Covalent binding (CVB), +Borneol (UGT inhibitor) ([19]; human hepatocytes): 44.4 pmol/mg protein
